US20120164154A1, “METHOD FOR INCREASING INSULIN SENSITIVITY AND FOR TREATING AND PREVENTING TYPE 2 DIABETES” (priority 2002, published 2012)

Assays:
Insulin tolerance test = type: in vivo; settings: SCD1-/- mice compared with wild-type mice
Description: Animals and Diets. SCD1−/− mice in SV129 background were generated and genotyped as described in Miyazaki, M. et al. (2001) J. Nutr. 131, 2260-2268. The wild-type (SCD1+/+), heterozygous (SCD1+/−) and homozygous (SCD1−/−) mice are housed and bred in a pathogen-free barrier facility of the Department of Biochemistry (University of Wisconsin, Madison) operating at room temperature in a 12-h light/12-h dark cycle. The breeding of these animals was in accordance with the protocols approved by the animal care research committee of the University of Wisconsin. At 3 weeks of age, the mice were fed ad libitum a standard laboratory chow diet or a high-fat diet for 23 weeks. The high-fat diet contains 195 g/kg casein, 3 g/kg DL-methionine, 377 g/kg sucrose, 150 g/kg corn starch, 153 g/kg anhydrous milkfat, 10 g/kg corn oil, 1.5 g/kg cholesterol, 60.067 g/kg cellulose, 35 g/kg mineral mix AIN-76 (170915), 4 g/kg calcium carbonate, 10 g/kg vitamin mix Teklad (40060), 1.2 g/kg choline bitartrate, and 0.033 g/kg ethoxyquin (antioxidant). The weight of each mouse within each group was measured weekly; the data are presented as means±SD (n=8, P<0.001). The glucose tolerance and insulin tolerance were determined as described in Stoehr, J. P. et al. (2000) Diabetes 49, 1946-1954.

isolated soleus muscle = experiment: Basal and insulin-stimulated 2-deoxyglucose uptake in isolated soleus muscle; parameters: species or system mice; settings: 0.1 m-unit of insulin/ml, 2 h preincubation, 2-deoxyglucose uptake 15 min
Procedure: (A) Representative immunoblot of GLUT4 protein expression along with combined densitometric analysis. Muscle from 3 SCD1+/+ and 3 SCD1−/− mice were pooled. Plasma membranes were prepared as described in Example 1. Equal amount of protein was separated by SDS-PAGE and immunoblotted with GLUT4 antibody. Experiment was repeated three times. Data are shown as means±SD. *P<0.05 vs controls. Nitrocellulose membrane was stripped and reprobed with GAPDH antibody to ensure equal loading of the protein. (B) Glucose uptake measured in vivo in soleus and gastrocnemius muscles. […] The 2-deoxyglucose uptake was calculated as the difference between the total muscle radioactivity and the radioactivity of the muscle extracellular space measured using [1-^3H] mannitol. […]
Determination of plasma membrane GLUT4 levels, glucose uptake and glucose oxidation. Muscle plasma membranes were prepared from muscle of SCD1−/− and SCD1+/+ mice and GLUT4 levels were determined as described in Agote, M. et al. (2001) Am. […] The scintillation cocktail was added and radioactivity was counted in a liquid scintillation counter. The 2-deoxyglucose (2-DG) uptake was calculated as the difference between the total muscle radioactivity and the radioactivity of the muscle extracellular space. […] Glucose oxidation was determined in thin slices (20-30 mg) of gastrocnemius muscle as described in Baque, S. et al. (2001) Am. […]

Substance: insulin
- glucose lowering effect of insulin (Insulin tolerance test): greater in the SCD1−/− mice than wild-type mice
- insulin-mediated glucose uptake (fold) (isolated soleus muscle; isolated soleus muscle from SCD1+/+ mice): 1.6 fold
- insulin-mediated glucose uptake (fold) (isolated soleus muscle; isolated soleus muscle from SCD1-/- mice): 2.1 fold
